In brackets after ≈: the same amount, converted by molar mass.
What was measured:
[1] = system: DT-R cells (pRRE3-luc-transfected v-ki-ras-transformed NIH3T3 cells); signal derived from Ras oncogene products; test: Inhibitory effect against cellular signaling derived from Ras oncogene products: luciferase reporter, dissociation of DT-R from DT-C activity (MAC); assay type: cell-based, mouse; settings: minimal tested concentration at which luciferase activities of DT-C cells and DT-R cells dissociated
Excerpt: Test Example 1 Inhibitory Effect Against Cellular Signaling Derived From Ras Oncogene Products
1) Establishment of Cell Lines Used in Assay
Based on the reporter plasmid (pGV-P (Toyo Ink, Japan)), in which luciferase gene was ligated to SV40-derived minimal promoter, we constructed a plasmid designated pRRE3-luc by inserting 3 copies of chemically synthesized oligonucleotides (Sequence: CAGGATATGACTCT, derived from mouse NVL-3 (M. A. Reddy et al.(1992)Mol. Endocrinol., 6, 1051)) into upstream of the promoter. v-ki-ras-transformed NIH3T3 cells (DT cells, provided by Dr. Makoto Noda (Kyoto Univ., School of medicine)) were transfected with this plasmid by liposome-mediated transfection and transfected cell lines stably incorporated and maintained each plasmid were obtained. We named pGV-P and pRRE3-transfected cell line as DT-C and DT-R, respectively and used in the assay described below.
2) Preparation of Samples
i) All the cell lines were cultured in Dulbecco's Modified Essential Medium (DMEM: 10% Fetal Calf Serum(FCS: Hyclone, USA)) including […] kanamycin (Meiji Seika, Japan) in humidified incubator under condition of 5% CO2 at 37° C.
ii) DT-C and DT-R cells were seeded at 2500 cells/well into flat-bottom 96 well multiplate (Sumitomo bakelite) and incubated for 24 hours.
iii) Test compounds were prepared as 1 mg/ml DMSO solution.
iv) The solution of test compounds were added to the culture. Tested compounds are used at the concentration from […] to 0.51 ng/ml with by 3-fold dilution.
v) After 24 hours, the culture supernatant was completely aspirated and […] of cell-lysing solution (PGC-50 (Toyo Ink, Japan)) was added before cells were dried up. In order to the cells were lysed completely, multiwell plates were left at room temperature for 10 to 30 min. The plates were wrapped up and stored at −20° C. till the day of measurement.
3) Measurement of Samples
i) Melt the samples by putting 96 well multiplate at 37° C. and add 90 μl/well 25 mM Tris (pH 7.5).
ii) Transfer 50 μl of the sample (110 μl) to the 96 well microplate for measurement (Microlite 1 (Dynatech)).
iii) Measure the samples by the luminometer, LUMINOUS CT9000D (Dia-Yatron, Japan). We used Pickagene luminescence kit PGL2000 or LT2.0 (Toyo Ink, Japan) as substrates for luminescence measurement (50 μl/well).
4) Judgment of the Results
i) The luciferase activity of DT-C cells and DT-R cells were plotted in the graph where the relative activity and the compound concentration were expressed as Y-axis and X-axis, respectively. We judged by the degree of dissociation between the activities of DT-C cells and DT-R cells as an index.
ii) Concretely, efficacy of the compound was expressed by two values described below.
a) Among the points of concentration tested, the minimal concentration (Minimal Active Concentration: MAC), at which the activities of DT-C cells and DT-R cells dissociated, was shown as an index of efficacy of the compound.

[2] = system: human colon cancer HT29; test: In vitro cell growth inhibition test, MTT assay; assay type: cell-based; settings: MTT assay 4 days after compound addition
Excerpt: (§1) Test Example 2 In Vitro Cell Growth Inhibition Test Cells and MTT Assay
(§2) Human squamous lung cancer […], human squamous lung cancer Ma44, human lung adenocarcinoma A549, human colon cancer HT29 and human pancreas cancer PANC-1 were used.

[3] = system: human lung adenocarcinoma A549; test: In vitro cell growth inhibition test, MTT assay; assay type: cell-based; settings: MTT assay 4 days after compound addition
Excerpt: as §1, §2

[4] = system: human pancreas cancer PANC-1; test: In vitro cell growth inhibition test, MTT assay; assay type: cell-based; settings: MTT assay 4 days after compound addition
Excerpt: as §1, §2

[5] = system: human squamous lung cancer Ma44; test: In vitro cell growth inhibition test, MTT assay; assay type: cell-based; settings: MTT assay 4 days after compound addition
Excerpt: as §1, §2

[6] = system: human squamous lung cancer RERF-RC-AI; test: In vitro cell growth inhibition test, MTT assay; assay type: cell-based; settings: MTT assay 4 days after compound addition
Excerpt: as §1, §2

Compound	MAC (Minimal Active Concentration) [1]	IC50, HT29 [2]	IC50, A549 [3]	IC50, PANC-1 [4]	IC50, Ma44 [5]	IC50, RERF-LC-AI [6]
CCNC(=Nc1ncncc1CSc1nnc(-c2ccc(N)cc2)o1)NCC [Compound A-3]	0.0412 µg/mL	0.0066 µg/mL (≈ 0.0166 µM)	0.035 µg/mL (≈ 0.0878 µM)	0.015 µg/mL (≈ 0.0376 µM)	0.09 µg/mL (≈ 0.226 µM)	0.026 µg/mL (≈ 0.0652 µM)
CCNC(=Nc1nc(C)ncc1CSc1nnc(-c2cc(F)c(F)cc2N)o1)NCC [Compound A-52]	0.123 µg/mL		0.049 µg/mL (≈ 0.109 µM)	0.024 µg/mL (≈ 0.0535 µM)	0.11 µg/mL (≈ 0.245 µM)	
CCNC(=Nc1nc(C)ncc1CSc1nnc(-c2ccc(C(=O)c3ccccc3)cc2)o1)NCC [Compound A-84]		0.38 µg/mL (≈ 0.758 µM)	0.44 µg/mL (≈ 0.877 µM)	0.3 µg/mL (≈ 0.598 µM)	0.41 µg/mL (≈ 0.817 µM)	0.18 µg/mL (≈ 0.359 µM)
CCCNC(=Nc1nc(CC)ncc1CSc1nnc(-c2ccc(N)cc2)o1)NC [Compound A-151]	0.37 µg/mL	0.02 µg/mL (≈ 0.0469 µM)	0.07 µg/mL (≈ 0.164 µM)	0.024 µg/mL (≈ 0.0563 µM)	0.16 µg/mL (≈ 0.375 µM)	0.013 µg/mL (≈ 0.0305 µM)
CCCNC(=Nc1ncncc1CSc1nnc(-c2ccc(N)cc2)o1)NCC [Compound A-178]	0.0412 µg/mL	0.0067 µg/mL (≈ 0.0162 µM)	0.014 µg/mL (≈ 0.0339 µM)	0.005 µg/mL (≈ 0.0121 µM)	0.024 µg/mL (≈ 0.0582 µM)	0.0036 µg/mL (≈ 0.00873 µM)
CCCNC(=Nc1nc(C)ncc1CSc1nnc(-c2ccc([N+](=O)[O-])cc2)o1)NCC.Cl [Compound A-188]	0.0137 µg/mL	0.01 µg/mL	0.052 µg/mL	0.017 µg/mL	0.016 µg/mL	0.012 µg/mL
CCNC(N)=Nc1nc(C)ncc1CSc1nnc(-c2ccc(N)cc2)o1 [Compound A-184]	0.0412 µg/mL	0.0077 µg/mL (≈ 0.02 µM)	0.01 µg/mL (≈ 0.026 µM)	0.0032 µg/mL (≈ 0.00832 µM)	0.016 µg/mL (≈ 0.0416 µM)	0.0027 µg/mL (≈ 0.00702 µM)
CCNC(=Nc1ncncc1CSc1nnc(-c2ccc(NC)cc2)o1)NCC [Compound A-66]		0.067 µg/mL (≈ 0.162 µM)	0.036 µg/mL (≈ 0.0873 µM)	0.17 µg/mL (≈ 0.412 µM)	1.8 µg/mL (≈ 4.36 µM)	0.05 µg/mL (≈ 0.121 µM)
CCNC(=Nc1ncncc1CSc1nnc(-c2ccc(N(C)C)cc2)o1)NCC [Compound A-67]		0.083 µg/mL (≈ 0.195 µM)	0.083 µg/mL (≈ 0.195 µM)	0.34 µg/mL (≈ 0.797 µM)	6.1 µg/mL (≈ 14.3 µM)	0.053 µg/mL (≈ 0.124 µM)
CCNC(=Nc1nc(C)ncc1CSc1nnc(-c2ccccc2Cl)o1)NCC [Compound A-77]		0.044 µg/mL (≈ 0.102 µM)	0.13 µg/mL (≈ 0.301 µM)	0.048 µg/mL (≈ 0.111 µM)	0.11 µg/mL (≈ 0.255 µM)	0.03 µg/mL (≈ 0.0695 µM)
CCNC(=Nc1nc(C)ncc1CSc1nnc(-c2c[nH]nc2N)o1)NCC [Compound D-7]		0.18 µg/mL (≈ 0.447 µM)	3.2 µg/mL (≈ 7.95 µM)	2.4 µg/mL (≈ 5.96 µM)	5.2 µg/mL (≈ 12.9 µM)	0.083 µg/mL (≈ 0.206 µM)
CCNC(=Nc1ncncc1CSc1nnc(-c2cc[n+]([O-])cc2)o1)NCC [Compound D-42]		0.071 µg/mL (≈ 0.177 µM)	0.57 µg/mL (≈ 1.42 µM)	0.17 µg/mL (≈ 0.425 µM)	0.38 µg/mL (≈ 0.949 µM)	0.082 µg/mL (≈ 0.205 µM)
CCNC(=Nc1nc(C)ncc1CSc1nnc(-c2ccccc2C)o1)NCC [Compound A-78]		0.021 µg/mL (≈ 0.051 µM)	0.063 µg/mL (≈ 0.153 µM)	0.037 µg/mL (≈ 0.0899 µM)	0.052 µg/mL (≈ 0.126 µM)	0.017 µg/mL (≈ 0.0413 µM)
